Assay results published in PubChem BioAssay (NCI).
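At the GI50, growth is halved. TGI is the concentration that stops growth completely.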

Assays:
Experiment in all cases: NCI tumour cell line growth inhibition, 384-well format
[1] = system: 786-0 renal
[2] = system: BT-549 breast
[3] = system: EKVX NSCLC
[4] = system: HCC-2998 colon
[5] = system: IGROV1 ovarian
[6] = system: MOLT-4 leukemia
[7] = system: NCI-H226 lung
[8] = system: NCI-H522 lung
[9] = system: OVCAR-8 ovarian
[10] = system: SK-OV-3 ovarian
[11] = system: SNB-19 CNS
[12] = system: SR leukemia
[13] = system: T-47D breast

SMILES: COCCOc1cnc2ccn([C@H](C)c3nnc4c(F)cc(-c5cnn(C)c5)cn34)c(=O)c2c1
- GI50 [1]: > 100 µM
- TGI [1]: > 100 µM
- GI50 [2]: > 100 µM
- TGI [2]: > 100 µM
- GI50 [3]: > 100 µM
- TGI [3]: > 100 µM
- GI50 [4]: > 100 µM
- TGI [4]: > 100 µM
- GI50 [5]: > 100 µM
- TGI [5]: > 100 µM
- GI50 [6]: > 94 µM
- TGI [6]: > 100 µM
- GI50 [7]: > 100 µM
- TGI [7]: > 100 µM
- GI50 [8]: > 100 µM
- TGI [8]: > 100 µM
- GI50 [9]: > 100 µM
- TGI [9]: > 100 µM
- GI50 [10]: > 100 µM
- TGI [10]: > 100 µM
- GI50 [11]: > 100 µM
- TGI [11]: > 100 µM
- GI50 [12]: 60.2 µM
- TGI [12]: > 100 µM
- GI50 [13]: > 100 µM
- TGI [13]: > 100 µM
